What follows are compounds tested on IL-1β production in PMA-differentiated THP-1 cells (assay: IL-1β production in PMA-differentiated THP-1 cells stimulated with gramicidin (hTHP-1 assay, 2% fetal bovine serum; Procedures 1-3)). Settings: hTHP-1 assay containing 2% fetal bovine serum; class symbols; read-out: hTHP-1 IC50 (Average IC50 of compounds in hTHP-1 assay).
Type: cell-based, human
Method in brief: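 PMA-differentiated (20 ng/ml, 16-18 h) THP-1 cells in RPMI with 2% FBS, 50,000 cells/well, preincubated 1 h with compound (final 100–0.0017 μM, 0.37% DMSO), then stimulated with 5 μM gramicidin for 2 h. Supernatant IL-1β measured by HTRF.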
An IC50 of 200 to 1000 nM was found for Cc1nc(C(C)(C)O)ccc1S(N)(=O)=NC(=O)Nc1c2c(cc3c1CCC3)CCC2 (single isomer, unassigned) [Example 345, (R) or (S)-N′-((1,2,3,5,6,7-hexahydro-s-indacen-4-yl)carbamoyl)-6-(2-hydroxypropan-2-yl)-2-methylpyridine-3-sulfonimidamide] in this work. An IC50 of 5000 to 30000 nM was found for Cc1nc(C(C)(C)O)ccc1S(N)(=O)=NC(=O)Nc1c2c(cc3c1CCC3)CCC2 (single isomer, unassigned) [Example 346, (R) or (S)-N′-((1,2,3,5,6,7-hexahydro-s-indacen-4-yl)carbamoyl)-6-(2-hydroxypropan-2-yl)-2-methylpyridine-3-sulfonimidamide] in this work. An IC50 of 8 to 40 nM was found for CC(C)(O)c1cnc(S(N)(=O)=NC(=O)Nc2c3c(cc4c2CCO4)CCC3)s1 (single isomer, unassigned) [Example 347, (R) or (S)-5-(2-hydroxypropan-2-yl)-N′-((3,5,6,7-tetrahydro-2H-indeno[5,6-b]furan-4-yl)carbamoyl)thiazole-2-sulfonimidamide] in this work. An IC50 of 1000 to 5000 nM was found for CC(C)(O)c1cnc(S(N)(=O)=NC(=O)Nc2c3c(cc4c2CCO4)CCC3)s1 (single isomer, unassigned) [Example 348, (S) or (R)-5-(2-hydroxypropan-2-yl)-N′-((3,5,6,7-tetrahydro-2H-indeno[5,6-b]furan-4-yl)carbamoyl)thiazole-2-sulfonimidamide] in this work. An IC50 of 1000 to 5000 nM was found for CC(C)(O)c1cnc(S(N)(=O)=NC(=O)Nc2c3c(cc4c2OCC4)CCC3)s1 (single isomer, unassigned) [Example 349, (S) or (R)-5-(2-hydroxypropan-2-yl)-N′-((3,5,6,7-tetrahydro-2H-indeno[5,6-b]furan-8-yl)carbamoyl)thiazole-2-sulfonimidamide] in this work. An IC50 of 40 to 200 nM was found for CC(C)(O)c1cnc(S(N)(=O)=NC(=O)Nc2c3c(cc4c2OCC4)CCC3)s1 (single isomer, unassigned) [Example 350, (R) or (S)-5-(2-hydroxypropan-2-yl)-N′-((3,5,6,7-tetrahydro-2H-indeno[5,6-b]furan-8-yl)carbamoyl)thiazole-2-sulfonimidamide] in this work. An IC50 of 200 to 1000 nM was found for CC(C)(O)c1cnc(S(N)(=O)=NC(=O)Nc2c3c(c(Br)c4c2CCC4)CCC3)s1 (single isomer, unassigned) [Example 351, (S) or (R)-N′-((8-bromo-1,2,3,5,6,7-hexahydro-s-indacen-4-yl)carbamoyl)-5-(2-hydroxypropan-2-yl)thiazole-2-sulfonimidamide] in this work. An IC50 of 40 to 200 nM was found for CC(C)(O)c1cnc(S(N)(=O)=NC(=O)Nc2c3c(c(Br)c4c2CCC4)CCC3)s1 (single isomer, unassigned) [Example 352, (R) or (S)-N′-((8-bromo-1,2,3,5,6,7-hexahydro-s-indacen-4-yl)carbamoyl)-5-(2-hydroxypropan-2-yl)thiazole-2-sulfonimidamide] in this work. An IC50 of 1000 to 5000 nM was found for CC(C)(O)c1csc(S(N)(=O)=NC(=O)Nc2c3c(cc4c2OCC4)CCC3)n1 (single isomer, unassigned) [Example 353, (S) or (R)-4-(2-hydroxypropan-2-yl)-N′-((3,5,6,7-tetrahydro-2H-indeno[5,6-b]furan-8-yl)carbamoyl)thiazole-2-sulfonimidamide] in this work. An IC50 of 8 to 40 nM was found for CC(C)(O)c1csc(S(N)(=O)=NC(=O)Nc2c3c(cc4c2OCC4)CCC3)n1 (single isomer, unassigned) [Example 354, (R) or (S)-4-(2-hydroxypropan-2-yl)-N′-((3,5,6,7-tetrahydro-2H-indeno[5,6-b]furan-8-yl)carbamoyl)thiazole-2-sulfonimidamide] in this work. An IC50 of less than 8 nM was found for CC(C)(O)c1ncc(S(N)(=O)=NC(=O)Nc2c3c(cc4c2CC4)CC3)s1 (single isomer, unassigned) [Example 355, (R) or (S)-2-(2-hydroxypropan-2-yl)-N′-(tricyclo[6.2.0.03,6]deca-1,3(6),7-trien-2-ylcarbamoyl)thiazole-5-sulfonimidamide] in this work.

From patent publication US11724992B2 (Novartis AG, priority 2017, dated 2023)
